Where “and” joins values, the source holds several entries; their conditions need not be identical. Identical values can stand only once.
Assay: Biodistribution studies of the 18F tracers in rats
Format: in vivo, male Wistar rats
Conditions: rat
Description: Biodistribution studies were carried out in healthy male Wister rats (body weight 200-500 g) at 2 min, 30 min and 60 min post injection (p.i.) (n=3/time point). For |^18F|B-4 only the 2 min and 30 min time points were studied. […] Blood and major organs were collected in tared tubes and weighed. The radioactivity in blood, organs and other body parts was measured using an automated gamma counter. The distribution of radioactivity in different parts of the body at different time points p.i. of the tracer was calculated and expressed as percentage of injected dose (% ID), and as percentage of injected dose per gram tissue (% ID/g) for the selected organs. % ID is calculated as cpm in organ/total cpm recovered. For calculation of total radioactivity in blood, blood mass was assumed to be 7% of the body mass.

## Cc1cccc(COc2ccc(-c3nn(CC[18F])cc3-c3ccncc3)cc2)n1 [[^18F]B-1]
Biodistribution studies
  retention in the PDE10A-rich region striatum: no significant retention
i.v.
  2 min/30 min ratios of % ID/g (normalized for body weight), all brain regions: ≥ 2.49
  Clearance, 2 min/30 min ratio of % ID/g (normalized for body weight), Blood: 1.65
  Clearance, 2 min/30 min ratio of % ID/g (normalized for body weight), Cerebellum: 4.01
  Clearance, 2 min/30 min ratio of % ID/g (normalized for body weight), Cerebrum total: 2.88
  Clearance, 2 min/30 min ratio of % ID/g (normalized for body weight), Cortex: 3.47
  Clearance, 2 min/30 min ratio of % ID/g (normalized for body weight), Hippocampus: 3.06
  Clearance, 2 min/30 min ratio of % ID/g (normalized for body weight), Rest of cerebrum: 2.86
  Clearance, 2 min/30 min ratio of % ID/g (normalized for body weight), Striatum: 2.49
  Clearance, 2 min/60 min ratio of % ID/g (normalized for body weight), Blood: 1.83
  Clearance, 2 min/60 min ratio of % ID/g (normalized for body weight), Cerebellum: 6.60
  Clearance, 2 min/60 min ratio of % ID/g (normalized for body weight), Cerebrum total: 3.60
  Clearance, 2 min/60 min ratio of % ID/g (normalized for body weight), Cortex: 5.55
  Clearance, 2 min/60 min ratio of % ID/g (normalized for body weight), Hippocampus: 3.63
  Clearance, 2 min/60 min ratio of % ID/g (normalized for body weight), Rest of cerebrum: 3.29
  Clearance, 2 min/60 min ratio of % ID/g (normalized for body weight), Striatum: 3.41
i.v., 2 min p.i.
  % ID, Carcass: 33.12 ± 2.3 % ID
  % ID, Cerebellum: 0.09 % ID and 0.091 ± 0.018 % ID
  % ID, Cerebrum total: 0.49 % ID and 0.490 ± 0.067 % ID
  % ID, Cortex: 0.069 ± 0.008 % ID
  % ID, Heart: 0.60 ± 0.1 % ID
  % ID, Hippocampus: 0.018 ± 0.004 % ID
  % ID, Intestines: 10.79 ± 1.5 % ID
  % ID, Kidneys: 4.24 ± 0.5 % ID
  % ID, Liver: 41.94 ± 2.2 % ID
  % ID, Lungs: 0.92 ± 0.2 % ID
  % ID, Rest of cerebrum: 0.367 ± 0.054 % ID
  % ID, Spleen + Pancreas: 1.92 ± 0.2 % ID
  % ID, Stomach: 3 % ID and 3.09 ± 0.1 % ID
  % ID, Striatum: 0.036 ± 0.012 % ID
  % ID, Urine: 0.09 ± 0.1 % ID
  % ID/g normalized for body weight, Blood: 0.06 ± 0.01 % ID/g × body wt. in kg
  % ID/g normalized for body weight, Cerebellum: 0.164 ± 0.01 % ID/g × body wt. in kg
  % ID/g normalized for body weight, Cerebrum + Cerebellum: 0.13 ± 0.01 % ID/g × body wt. in kg
  % ID/g normalized for body weight, Cerebrum total: 0.120 ± 0.01 % ID/g × body wt. in kg
  % ID/g normalized for body weight, Cortex: 0.199 ± 0.04 % ID/g × body wt. in kg
  % ID/g normalized for body weight, Heart: 0.21 ± 0.02 % ID/g × body wt. in kg
  % ID/g normalized for body weight, Hippocampus: 0.083 ± 0.01 % ID/g × body wt. in kg
  % ID/g normalized for body weight, Kidneys: 0.47 ± 0.05 % ID/g × body wt. in kg
  % ID/g normalized for body weight, Liver: 0.92 ± 0.05 % ID/g × body wt. in kg
  % ID/g normalized for body weight, Lungs: 0.19 ± 0.08 % ID/g × body wt. in kg
  % ID/g normalized for body weight, Rest of cerebrum: 0.111 ± 0.00 % ID/g × body wt. in kg
  % ID/g normalized for body weight, Spleen + Pancreas: 0.40 ± 0.03 % ID/g × body wt. in kg
  % ID/g normalized for body weight, Striatum: 0.175 ± 0.02 % ID/g × body wt. in kg
  % ID/g, Blood: 0.21 ± 0.02 % ID/g
  % ID/g, Cerebellum: 0.607 ± 0.019 % ID/g
  % ID/g, Cerebrum + Cerebellum: 0.47 ± 0.03 % ID/g
  % ID/g, Cerebrum total: 0.444 ± 0.026 % ID/g
  % ID/g, Cortex: 0.734 ± 0.148 % ID/g
  % ID/g, Heart: 0.76 ± 0.09 % ID/g
  % ID/g, Hippocampus: 0.307 ± 0.041 % ID/g
  % ID/g, Liver: 3.40 ± 0.31 % ID/g
  % ID/g, Lungs: 0.69 ± 0.34 % ID/g
  % ID/g, Rest of cerebrum: 0.411 ± 0.023 % ID/g
  % ID/g, Spleen + Pancreas: 1.47 ± 0.15 % ID/g
  % ID/g, Striatum: 0.648 ± 0.075 % ID/g
  striatum/blood ratio (from % ID/g normalized for body weight): 3.10
  striatum/cerebellum ratio (from % ID/g normalized for body weight): 1.07
  striatum/cortex ratio (from % ID/g normalized for body weight): 0.88
  striatum/hippocampus ratio (from % ID/g normalized for body weight): 2.11
  total initial brain uptake: 0.59 % ID
i.v., 30 min p.i.
  % ID, Blood: 2.40 ± 0.4 % ID
  % ID, Carcass: 25.50 ± 2.1 % ID
  % ID, Cerebellum: 0.028 ± 0.000 % ID
  % ID, Cerebrum total: 0.172 ± 0.012 % ID
  % ID, Cortex: 0.026 ± 0.004 % ID
  % ID, Heart: 0.21 ± 0.0 % ID
  % ID, Hippocampus: 0.006 ± 0.000 % ID
  % ID, Intestines: 14.67 ± 3.3 % ID
  % ID, Kidneys: 1.44 ± 0.2 % ID
  % ID, Liver: 45.29 ± 5.2 % ID
  % ID, Lungs: 0.42 ± 0.1 % ID
  % ID, Rest of cerebrum: 0.127 ± 0.010 % ID
  % ID, Spleen + Pancreas: 0.57 ± 0.2 % ID
  % ID, Stomach: 10 % ID and 9.73 ± 1.7 % ID
  % ID, Striatum: 0.013 ± 0.001 % ID
  % ID, Urine: 0.29 ± 0.0 % ID
  % ID/g normalized for body weight, Blood: 0.03 ± 0.01 % ID/g × body wt. in kg

Source: patent US8852554B2, “Radiolabelled PDE10 ligands” (Janssen Pharmaceutica NV, priority 2009, dated 2014)
